Assays:
Settings in all cases: in vivo, po
Rattus norvegicus [1] = test: Tested for the diuretic activity by measuring the urinary volume after peroral administering 348 uM/Kg of drug in rats; type: ADME, organism-based, Urine
Rattus norvegicus [2] = test: Total electrolytic excretion of chlorine in urine of rats after peroral administration of 105 uM/Kg of drug; type: ADME, organism-based
Rattus norvegicus [3] = test: Total electrolytic excretion of potassium in urine of rats after peroral administration of 34.8 uM/Kg of drug; type: ADME, organism-based
Rattus norvegicus [4] = test: Total electrolytic excretion of potassium in urine of rats after peroral administration of 348 uM/Kg of drug; type: ADME, organism-based
Rattus norvegicus [5] = test: Total electrolytic excretion of sodium in urine of rats after peroral administration of 34.8 uM/Kg of drug; type: ADME, organism-based
Rattus norvegicus [6] = test: Total electrolytic excretion of sodium in urine of rats after peroral administration of 105 uM/Kg of drug; type: ADME, organism-based
Rattus norvegicus [7] = test: Tested for the diuretic activity by measuring the urinary volume after peroral administering 34.8 uM/Kg of drug in rats; type: ADME, organism-based, Urine
Rattus norvegicus [8] = test: Total electrolytic excretion of chlorine in urine of rats after peroral administration of 348 uM/Kg of drug; type: ADME, organism-based
Rattus norvegicus [9] = test: Total electrolytic excretion of sodium in urine of rats after peroral administration of 348 uM/Kg of drug; type: ADME, organism-based
Rattus norvegicus [10] = test: Total electrolytic excretion of chlorine in urine of rats after peroral administration of 34.8 uM/Kg of drug; type: ADME, organism-based
Rattus norvegicus [11] = test: Ratio of Total electrolytic excretion of sodium and potassium in urine of rats after peroral administration of 34.8 uM/Kg of drug; type: ADME, organism-based
Rattus norvegicus [12] = test: Ratio of Total electrolytic excretion of sodium and potassium in urine of rats after peroral administration of 105 uM/Kg of drug; type: ADME, organism-based
Rattus norvegicus [13] = test: Ratio of Total electrolytic excretion of sodium and potassium in urine of rats after peroral administration of 348 uM/Kg of drug; type: ADME, organism-based
Rattus norvegicus [14] = test: Tested for the diuretic activity by measuring the urinary volume after peroral administering 105 uM/Kg of drug in rats; type: ADME, organism-based, Urine
Rattus norvegicus [15] = test: Total electrolytic excretion of potassium in urine of rats after peroral administration of 105 uM/Kg of drug; type: ADME, organism-based
Rattus norvegicus [16] = test: Total electrolytic excretion of sodium in urine of rats after peroral administration of 71.8 uM/Kg of drug; type: ADME, organism-based
Rattus norvegicus [17] = test: Total electrolytic excretion of sodium in urine of rats after peroral administration of 239 uM/Kg of drug; type: ADME, organism-based
Rattus norvegicus [18] = test: Total electrolytic excretion of sodium in urine of rats after peroral administration of 23.9 uM/Kg of drug; type: ADME, organism-based
Rattus norvegicus [19] = test: Total electrolytic excretion of chlorine in urine of rats after peroral administration of 239 uM/Kg of drug; type: ADME, organism-based
Rattus norvegicus [20] = test: Tested for the diuretic activity by measuring the urinary volume after peroral administering 23.9 uM/Kg of drug in rats; type: ADME, organism-based, Urine
Rattus norvegicus [21] = test: Tested for the diuretic activity by measuring the urinary volume after peroral administering 239 uM/Kg of drug in rats; type: ADME, organism-based, Urine
Rattus norvegicus [22] = test: Total electrolytic excretion of chlorine in urine of rats after peroral administration of 23.9 uM/Kg of drug; type: ADME, organism-based
Rattus norvegicus [23] = test: Total electrolytic excretion of potassium in urine of rats after peroral administration of 71.8 uM/Kg of drug; type: ADME, organism-based
Rattus norvegicus [24] = test: Ratio of Total electrolytic excretion of sodium and potassium in urine of rats after peroral administration of 71.8 uM/Kg of drug; type: ADME, organism-based
Rattus norvegicus [25] = test: Total electrolytic excretion of potassium in urine of rats after peroral administration of 239 uM/Kg of drug; type: ADME, organism-based
Rattus norvegicus [26] = test: Ratio of Total electrolytic excretion of sodium and potassium in urine of rats after peroral administration of 239 uM/Kg of drug; type: ADME, organism-based
Rattus norvegicus [27] = test: Ratio of Total electrolytic excretion of sodium and potassium in urine of rats after peroral administration of 23.9 uM/Kg of drug; type: ADME, organism-based
Rattus norvegicus [28] = test: Tested for the diuretic activity by measuring the urinary volume after peroral administering 71.8 uM/Kg of drug in rats; type: ADME, organism-based, Urine
Rattus norvegicus [29] = test: Total electrolytic excretion of potassium in urine of rats after peroral administration of 23.9 uM/Kg of drug; type: ADME, organism-based
Rattus norvegicus [30] = test: Total electrolytic excretion of chlorine in urine of rats after peroral administration of 71.8 uM/Kg of drug; type: ADME, organism-based

## c1ccc(N/C(=N/C2CCCCC2)N2CCOCC2)cc1
Rattus norvegicus [1]
  V: 9 mL
Rattus norvegicus [2]
  Excretion Cl-: 1.12 m equiv
Rattus norvegicus [3]
  Excretion K+: 0.27 m equiv
Rattus norvegicus [4]
  Excretion K+: 0.4 m equiv
Rattus norvegicus [5]
  Excretion Na+: 0.93 m equiv
Rattus norvegicus [6]
  Excretion Na+: 1.02 m equiv
Rattus norvegicus [7]
  V: 5.6 mL
Rattus norvegicus [8]
  Excretion Cl-: 1.39 m equiv
Rattus norvegicus [9]
  Excretion Na+: 1.37 m equiv
Rattus norvegicus [10]
  Excretion Cl-: 1.04 m equiv
Rattus norvegicus [11]
  Ratio: 3.4
Rattus norvegicus [12]
  Ratio: 2.8
Rattus norvegicus [13]
  Ratio: 3.4
Rattus norvegicus [14]
  V: 7.3 mL
Rattus norvegicus [15]
  Excretion K+: 0.37 m equiv

## FC(F)(F)c1cccc(N/C(=N/C2CCCCC2)N2CCOCC2)c1
Rattus norvegicus [16]
  Excretion Na+: 1.46 m equiv
Rattus norvegicus [17]
  Excretion Na+: 2.02 m equiv
Rattus norvegicus [18]
  Excretion Na+: 1.02 m equiv
Rattus norvegicus [19]
  Excretion Cl-: 2.03 m equiv
Rattus norvegicus [20]
  V: 6.6 mL
Rattus norvegicus [21]
  V: 14 mL
Rattus norvegicus [22]
  Excretion Cl-: 1.17 m equiv
Rattus norvegicus [23]
  Excretion K+: 0.32 m equiv
Rattus norvegicus [24]
  Ratio: 4.6
Rattus norvegicus [25]
  Excretion K+: 0.45 m equiv
Rattus norvegicus [26]
  Ratio: 4.5
Rattus norvegicus [27]
  Ratio: 2.6
Rattus norvegicus [28]
  V: 9.5 mL
Rattus norvegicus [29]
  Excretion K+: 0.39 m equiv
Rattus norvegicus [30]
  Excretion Cl-: 1.59 m equiv

From ChEMBL document CHEMBL1127385, “Synthesis and diuretic activity of alkyl- and arylguanidine analogs of N,N'-dicyclohexyl-4-morpholinecarboxamidine in rats and dogs” (J Med Chem, 1994)
